Results on one compound are retold here after paper PMC4801399, “Impact of a CXCL12/CXCR4 Antagonist in Bleomycin (BLM) Induced Pulmonary Fibrosis and Carbon Tetrachloride (CCl4) Induced Hepatic Fibrosis in Mice” (PLoS ONE, 2016).

In data set [1] the test system is CCl4-induced hepatic fibrosis. The data set is described as follows: CCl4-induced murine model of hepatic fibrosis. In kind it is in vivo, C57BL/6 mice. The text has this: Hepatic fibrosis was induced in eleven week old female C57BL/6 mice from JAX Labs. Animals were randomly divided into three groups: oil plus vehicle (PBS) control, CCl4 plus vehicle (PBS) control and CCl4 plus AMD070. As some animals were euthanized prior to study completion because they had reached a humane endpoint, final group numbers were n = 9 for oil plus vehicle (PBS) control, n = 6 for CCl4 plus vehicle (PBS) control and n = 7 for CCl4 plus AMD070 groups. […] Starting one day prior to the initial CCl4 treatment (day -1), dosing with either AMD070 reconstituted in PBS (50 mg/kg) or PBS vehicle control (10 mL/kg) was administered IP and continued 5 days/week for 4 weeks. Specifically, AMD070 or PBS treatments were not performed on the 2 days/week on which animals were given CCl4 (or olive oil vehicle control). One day after the last AMD070 or PBS treatment, animals were euthanized with CO2.
Livers were perfused with PBS then 10% formalin and the left top lobe preserved in 10% neutral buffer formalin (NBF) for a week. The fixed liver was embedded in paraffin, six cross sections at 500 μm apart generated and stained with Picrosirius Red. For quantitation of percent hepatic fibrosis, fibrotic area (Picrosirius Red) was divided by total liver area and multiplying by 100. Three histology slides/animal were analyzed. The three slides corresponded to one slide from each of the alternative six cross sections. These analyses were performed with Olympus cellSens and the analyst was blinded to sample identity.
The top right lobe of livers were homogenized in 1 mL of Trizol (Invitrogen) and flash frozen in dry ice and stored in -80°C for RNA isolation to perform RT-qPCR. Total RNA was isolated and cDNA prepared using the High Capacity cDNA Reverse Transcription kit according to the manufacturer’s instructions (Life Technologies). RT-qPCR was carried out as previously described using the standard curve method. The following primer/probe sets were used to detect: Acta2 (IDT Assay–N007392.1), Probe- 5’-/56-FAM/TTACAGAGC/ZEN/CCAGAGCCATTGTCG/3IABkFQ/3’, Primer 1–5’-[…]-3’, Primer 2: 5’-[…]-3’; Col1a1 (Life Technologies custom primer/probe mix), primer 1–5’-[…], primer 2–5’- […], probe- 5’-FAM-ACACCGGAACTTGGG-MGBNFQ; Tbp (Life Technologies custom primer/probe mix), Primer 1–5’-[…], Primer 2–5’-TGGCTCCTGTGCACACCAT, Probe- 5’-FAM-CGTTGATTTTCAGTTCTGG-MGBNFQ; Gapdh (IDT Assay–Mm.PT.39a.1), probe- 5’-/56-FAM/TGCAAATGG/ZEN/CAGCCCTGGTG/3IABkFQ/3’, primer 1–5’-AATGGTGAAGGTCGGTGTG-3’, primer 2–5’-[…]-3’.
Five μL of serum was used with the AST Activity Assay Kit (Sigma MAK055) as per manufacturer’s instructions to determine serum AST levels.

Data set [2] is described as follows: AMD070 PK study via SC injection: plasma, lung and liver concentration. In kind it is in vivo, C57BL/6 mice. Particulars: SC 400 μg/mouse; for Kp: C57BL/6, read-out: Tissue AUC/Plasma AUC. The protocol:
All preceding procedures were same as those for AMD070 PK studies via IP injections. AMD070 concentrations in mouse plasma were determined using protein precipitation extraction followed by UPLC-MS/MS analysis. Briefly, 100 μL aliquots of plasma were transferred to individual wells of an Isolute PPT+ (Biotage) array plate containing 300 μL of 0.1% formic acid (FA) in acetonitrile (ACN). […] The sample residue was then reconstituted into 200 μL of 0.1/5/95 FA/ACN/H2O (v/v/v) and analyzed using reverse phase chromatography (gradient elution) combined with multiple reaction monitoring acquisition (MRM). The mobile phases consisted of 0.1% FA in H2O and 0.1% FA in ACN. AMD070 was extracted from lung and liver tissue by homogenization under basic conditions followed by liquid-liquid extraction in tert-butyl methyl ether (TBME) and ethyl acetate respectively. In summary, 50 mg of lung or liver tissue pieces were cut, weighed, and transferred to homogenization tubes. 25 μL of deionized water for lung and 10 μL for liver were added to each tube, followed by the addition of zirconium (Zr) homogenization beads. The samples were homogenized for approximately 20 seconds in the BeadBeater, followed by 1 minute of centrifugation at room temperature at 13,520 rcf. 200 μL of 1 N NaOH was then transferred to each tube, followed by a second homogenization/centrifugation cycle as described above. […] The dried residue was reconstituted into 0.1/5/95 TFA/ACN/H2O and analyzed using reverse phase chromatography (gradient elution) combined with MRM acquisition in positive electrospray mode (ES+). The mobile phases consisted of 0.1% TFA in H2O and 0.1% TFA in ACN.

[3] abbreviates: RT-qPCR relative to Gapdh and Tbp, CCl4 plus AMD070 vs CCl4 plus PBS.

Like-named read-outs stand apart in the source and are kept apart here.

Broadly, the Cmax is the peak of the concentration-time curve. One may read the Tmax as the time from dosing to the highest level. What is called AUC is the area under the concentration-time curve, a measure of exposure.

As to `NCCCCN(Cc1nc2ccccc2[nH]1)[C@H]1CCCc2cccnc21` [AMD070], the “percent liver fibrosis (Picrosirius red staining)” value in data set [1] (CCl4 plus AMD070 50 mg/kg IP 5 days/week for 4 weeks, group average, CCl4 plus PBS 3.2%) is given as 3.6%. Besides, in data set [1] (CCl4 plus AMD070 50 mg/kg IP vs control groups), the “mortality rate between groups” value is listed as “no difference”. The “liver Acta2 (αSma) relative transcription level” value in data set [1] (setting [3]) is recorded as “not different”. Besides, the “liver Col1a1 relative transcription level” value in data set [1] (setting [3]) is “not different”. In data set [1] (after 4 weeks, CCl4 plus AMD070 vs CCl4 plus vehicle control), the “serum AST levels” value is recorded as “no difference”. Besides, the Cmax was 5760 ng/g in data set [2] (C57BL/6, 400 ug, Liver); 5650 ng/g in data set [2] (C57BL/6, 400 ug, Lung); 700 ng/mL in data set [2] (C57BL/6, 400 ug, Plasma). For the same compound, the Tmax came out at 30 min in data set [2] (C57BL/6, 400 ug, Liver); 60 min in data set [2] (C57BL/6, 400 ug, Lung); 30 min in data set [2] (C57BL/6, 400 ug, Plasma). In addition, the area under the curve (AUC) in data set [2] (C57BL/6, 400 ug, Plasma, read-out: AUC (all time points)) is 970 ng·h/mL. Moreover, the Kp in data set [2] (Liver) amounted to 79.7; in data set [2] (Lung) it was 83.3.
